From patent US20170239323A1, “ORITAVANCIN FORMULATIONS” (The Medicines Company, priority 2016, published 2017)
Like-named read-outs stand apart in the source and are kept apart here.

Key:
[1] = Double-blind pharmacokinetic study of a single 1200 mg IV dose of oritavancin in healthy volunteers; type: in vivo; details: human, plasma, healthy subjects, average
Experimental: A randomized, double-blind, single center cohort study of a new formulation of a single 1200 mg IV dose of oritavancin in healthy volunteers, adjusting infusion time, concentration and reconstitution/administration solutions, of a single 1200 mg intravenous (IV) infusion of oritavancin in healthy adult subjects, was performed. Cohort 1 was administered the current, approved formulation of oritavancin which uses Sterile Water For Injection (SWFI) as the reconstituting agent and D5W for further dilution for a volume of 1000 mL. This infusion was given per the approved label over three hours. Cohort 2 was administered a new formulation for which hydroxypropyl-β-cyclodextrin (HPBCD) was included in the reconstitution diluent and D5W is used for further dilution for a total volume of 250 mL. This formulation was administered over two hours. Cohorts 3, 4, and 5 were administered the same new formulation as Cohort 2 (HPBCD and 250 mL of D5W); however, the infusion was administered over 90, 60, 30 minutes respectively. Two subjects in each of Cohorts 2, 3, 4, and 5 received a placebo infusion of D5W to use as a comparison when reviewing adverse event data. Healthy volunteer subjects providing informed consent and meeting all study eligibility criteria were randomized in the study and received one 1200 mg dose of IV oritavancin or placebo (cohorts 2-5 only).
COHORT 1: At the time of use, each vial was reconstituted by adding 40 mL of Sterile Water or for Injection, (“SWFI,” United States Pharmacopeia) to each 400 mg vial of oritavancin. Vials reconstituted in this manner gave a 10 mg/mL solution. After reconstitution, the compositions were combined and further diluted in 5% dextrose in water (D5W) to provide a total volume of approximately 1000 mL. At each dosing, 1200 mg of oritavancin in 1000 mL total of diluent was administered at a constant rate IV infusion over 3 hours via a single dedicated peripheral IV line (n=6).
(§1) COHORT 2: At the time of use, each vial was reconstituted by adding 4 mL of SWFI and 4 mL of 20% (w/v) HPBCD solution, to each 400 mg vial of oritavancin. Vials reconstituted in this manner provided a 50 mg/mL oritavancin solution. After reconstitution, the compositions were combined and further diluted in 5% dextrose in water (D5W) to provide a total volume of approximately 250 mL. At each dosing, 1200 mg of oritavancin in 250 mL of diluent was administered as a constant rate IV infusion over 2 hours via a single dedicated peripheral IV line (n=8) or a 2 hour placebo IV infusion of 250 mL of D5W (n=2).
as §1, with “3:” for “2:”, “90 minutes” for “2 hours”, “90 minute” for “2 hour”, “placebo” for “placebo IV”
as §1, with “4:” for “2:”, “60 minutes” for “2 hours”, “60 minute” for “2 hour”, “placebo” for “placebo IV”
COHORT 5: At the time of use, each vial was reconstituted by adding 4 mL of SWFI and 4 mL of 20% (w/v) HPBCD solution, to each 400 mg vial of oritavancin. […]

[2] = Pharmacokinetics in ABSSSI patients after single 1200 mg IV oritavancin (ORBACTIV) in 1000 mL D5W; type: in vivo, human; details: plasma; for AUC(0-t) / half-life: iv, 1200 mg
Experimental: Oritavancin (as ORBACTIV®) was evaluated in double-blind, controlled ABSSSI clinical trials, which included 976 adult patients treated with a single 1200 mg intravenous dose of oritavancin in 1000 mL D5W. The formulation was prepared by adding 40 mL of sterile water for injection (WFI) to each of three 400 mg vials of ORBACTIV® to provide a 10 mg/mL solution per vial. Each vial was gently swirled to avoid foaming and ensure that all ORBACTIV powder was completely reconstituted in solution. […] The three solutions were combined and diluted to 1000 mL total volume with 5% dextrose in sterile water (D5W), to give a 1.2 mg/mL solution of oritavancin. The formulation was administered to each subject intravenously over 3 hours, and PK was measured (Table 20). The median age of patients treated with oritavancin was 45.6 years, ranging between 18 and 89 years of age with 8.8%≧65 years of age. Patients treated with oritavancin were predominantly male (65.4%), 64.4% were Caucasian, 5.8% were African American, and 28.1% were Asian. Safety was evaluated for up to 60 days after dosing.

[3] = Cohort 1: 1200 mg IV, approved formulation (SWFI, no HPBCD), D5W 1000 mL, 3 h infusion
[4] = Cohort 2: 1200 mg IV, HPBCD formulation, D5W 250 mL, 2 h infusion
[5] = Cohort 3: 1200 mg IV, HPBCD formulation, D5W 250 mL, 1.5 h infusion
[6] = Cohort 4: 1200 mg IV, HPBCD formulation, D5W 250 mL, 1 h infusion
[7] = Cohort 5: 1200 mg IV, HPBCD formulation, D5W 250 mL, 0.5 h infusion
[8] = Cohort 6: 1200 mg IV, HPBCD formulation, NS 250 mL, 1 h infusion
[9] = mean, ABSSSI subjects, single 1200 mg IV dose over 3 hours (n = 297)

Work on CN[C@H](CC(C)C)C(=O)N[C@H]1C(=O)N[C@@H](CC(N)=O)C(=O)N[C@H]2C(=O)N[C@H]3C(=O)N[C@H](C(=O)N[C@H](C(=O)O)c4cc(O)cc(O)c4-c4cc3ccc4O)[C@H](O[C@H]3C[C@](C)(N)[C@@H](O)[C@H](C)O3)c3ccc(c(Cl)c3)Oc3cc2cc(c3O[C@@H]2O[C@H](CO)[C@@H](O)[C@H](O)[C@H]2O[C@H]2C[C@](C)(NCc3ccc(-c4ccc(Cl)cc4)cc3)[C@@H](O)[C@H](C)O2)Oc2ccc(cc2Cl)[C@H]1O [Oritavancin] yielded an AUC(0-inf) [1, 3] of 3680 µg·h/mL, a Cmax [1, 3] of 183 µg/mL and an AUC(0-inf) [1, 4] of 2710 µg·h/mL. The Cmax [1, 4] was 153 µg/mL, the AUC(0-inf) [1, 5] was 2850 µg·h/mL and the Cmax [1, 5] was 177 µg/mL. It also gave an AUC(0-inf) [1, 6] of 2870 µg·h/mL, a Cmax [1, 6] of 202 µg/mL and an AUC(0-inf) [1, 7] of 3180 µg·h/mL. For the same compound, the Cmax [1, 7] was 199 µg/mL, the AUC(0-inf) [1, 8] was 2960 µg·h/mL and the Cmax [1, 8] was 206 µg/mL. For the same compound, the AUC ([2]; both sexes, human, intravenous, 1200 mg dose in man, read-out: plasma exposure (AUC) in man) was about 2800 µg·h/mL, the AUC(0-t) ([2]; both sexes, human, mean, ABSSSI subjects, single 1200 mg IV dose over 3 hours (n = 297), read-out: AUC0-24) was 1110 µg·h/mL and the AUC(0-t) ([2]; both sexes, human, mean, ABSSSI subjects, single 1200 mg IV dose over 3 hours (n = 297), read-out: AUC0-72) was 1530 µg·h/mL. The half-life ([2]; both sexes, human, mean, ABSSSI subjects, single 1200 mg IV dose over 3 hours (n = 297), read-out: T1/2,α (converted)) was 2.29 h, the half-life ([2]; both sexes, human, mean, ABSSSI subjects, single 1200 mg IV dose over 3 hours (n = 297), read-out: T1/2,β (converted)) was 13.4 h and the half-life ([2]; both sexes, human, mean, ABSSSI subjects, single 1200 mg IV dose over 3 hours (n = 297), read-out: T1/2,γ (converted)) was 245 h. It also gave a Vd ([2]; both sexes, human, mean, ABSSSI subjects, single 1200 mg IV dose over 3 hours (n = 297), read-out: Vss) of 97.8 L, an AUC(0-inf) ([2]; both sexes, human, per Orbactiv Package Insert (Comparative Example 4): 1200 mg IV, D5W, 3 h infusion) of 2800 µg·h/mL and a Cmax ([2]; both sexes, human, per Orbactiv Package Insert (Comparative Example 4): 1200 mg IV, D5W, 3 h infusion, read-out: Cmax) of 138 µg/mL. The “AUC0-∞” value [2, 9] was 2800 µg·h/mL and the Cmax [2, 9] was 138 µg/mL.
